# In PubChem BioAssay (NCI):
#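 How tested: cells in 96-well plates exposed to compound for 48 hours at five concentrations. GI50 is the concentration that inhibits growth by half. TGI marks complete inhibition of growth.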
# Legend:
# Test in all cases: NCI anticancer screen, dose series, 48 h
# 786-0 renal = system: 786-0 renal
# A498 renal = system: A498 renal
# A549 NSCLC = system: A549 NSCLC
# ACHN renal = system: ACHN renal
# BT-549 breast = system: BT-549 breast
# CAKI-1 renal = system: CAKI-1 renal
# CCRF-CEM leukemia = system: CCRF-CEM leukemia
# COLO 205 colon = system: COLO 205 colon
# DU-145 prostate = system: DU-145 prostate
# EKVX NSCLC = system: EKVX NSCLC
# HCC-2998 colon = system: HCC-2998 colon
# HCT-116 colon = system: HCT-116 colon
# HCT-15 colon = system: HCT-15 colon
# HL-60(TB) leukemia = system: HL-60(TB) leukemia
# HOP-62 NSCLC = system: HOP-62 NSCLC
# HOP-92 NSCLC = system: HOP-92 NSCLC
# HS 578T breast = system: HS 578T breast
# HT29 colon = system: HT29 colon
# IGROV1 ovarian = system: IGROV1 ovarian
# K-562 leukemia = system: K-562 leukemia
# KM12 colon = system: KM12 colon
# LOX IMVI melanoma = system: LOX IMVI melanoma
# M14 melanoma = system: M14 melanoma
# MALME-3M melanoma = system: MALME-3M melanoma
# MCF7 breast = system: MCF7 breast
# MDA-MB-231 breast = system: MDA-MB-231 breast
# MDA-MB-435 = system: MDA-MB-435
# MOLT-4 leukemia = system: MOLT-4 leukemia
# NCI-H226 lung = system: NCI-H226 lung
# NCI-H23 lung = system: NCI-H23 lung
# NCI-H460 lung = system: NCI-H460 lung
# NCI-H522 lung = system: NCI-H522 lung
# NCI/ADR-RES ovarian = system: NCI/ADR-RES ovarian
# OVCAR-3 ovarian = system: OVCAR-3 ovarian
# OVCAR-4 ovarian = system: OVCAR-4 ovarian
# OVCAR-5 ovarian = system: OVCAR-5 ovarian
# OVCAR-8 ovarian = system: OVCAR-8 ovarian
# PC-3 prostate = system: PC-3 prostate
# RXF 393 renal = system: RXF 393 renal
# SF-268 CNS = system: SF-268 CNS
# SF-295 CNS = system: SF-295 CNS
# SF-539 CNS = system: SF-539 CNS
# SK-MEL-2 melanoma = system: SK-MEL-2 melanoma
# SK-MEL-28 melanoma = system: SK-MEL-28 melanoma
# SK-MEL-5 melanoma = system: SK-MEL-5 melanoma
# SK-OV-3 ovarian = system: SK-OV-3 ovarian
# SN12C renal = system: SN12C renal
# SNB-19 CNS = system: SNB-19 CNS
# SR leukemia = system: SR leukemia
# SW-620 colon = system: SW-620 colon
# T-47D breast = system: T-47D breast
# TK-10 renal = system: TK-10 renal
# U251 CNS = system: U251 CNS
# UACC-257 melanoma = system: UACC-257 melanoma
# UACC-62 melanoma = system: UACC-62 melanoma
# UO-31 renal = system: UO-31 renal
smiles,measurement,setting,value
CC1=CC[C@@H]2C(C)(C)[C@@H](O)CC[C@@]2(C)[C@@H]1COc1ccc2ccc(=O)oc2c1,GI50,786-0 renal,13 µM
same,TGI,786-0 renal,28 µM
same,GI50,A498 renal,0.905 µM
same,TGI,A498 renal,19.9 µM
same,GI50,A549 NSCLC,5.68 µM
same,TGI,A549 NSCLC,22.8 µM
same,GI50,ACHN renal,5.11 µM
same,TGI,ACHN renal,19.6 µM
same,GI50,BT-549 breast,2.9 µM
same,TGI,BT-549 breast,8.23 µM
same,GI50,CAKI-1 renal,4.11 µM
same,TGI,CAKI-1 renal,20.9 µM
same,GI50,CCRF-CEM leukemia,3.39 µM
same,TGI,CCRF-CEM leukemia,19.9 µM
same,GI50,COLO 205 colon,5.35 µM
same,TGI,COLO 205 colon,23.6 µM
same,GI50,DU-145 prostate,5.39 µM
same,TGI,DU-145 prostate,17.8 µM
same,GI50,EKVX NSCLC,10.3 µM
same,TGI,EKVX NSCLC,26.7 µM
same,GI50,HCC-2998 colon,12.7 µM
same,TGI,HCC-2998 colon,27.4 µM
same,GI50,HCT-116 colon,4.6 µM
same,TGI,HCT-116 colon,18.7 µM
same,GI50,HCT-15 colon,3.6 µM
same,TGI,HCT-15 colon,15.8 µM
same,GI50,HL-60(TB) leukemia,3.27 µM
same,TGI,HL-60(TB) leukemia,14 µM
same,GI50,HOP-62 NSCLC,6.84 µM
same,TGI,HOP-62 NSCLC,26.1 µM
same,GI50,HOP-92 NSCLC,3.83 µM
same,TGI,HOP-92 NSCLC,18.2 µM
same,GI50,HS 578T breast,3.29 µM
same,TGI,HS 578T breast,23.4 µM
same,GI50,HT29 colon,9.83 µM
same,TGI,HT29 colon,44.6 µM
same,GI50,IGROV1 ovarian,6.03 µM
same,TGI,IGROV1 ovarian,22 µM
same,GI50,K-562 leukemia,3.28 µM
same,TGI,K-562 leukemia,27.5 µM
same,GI50,KM12 colon,4.18 µM
same,TGI,KM12 colon,15.7 µM
same,GI50,LOX IMVI melanoma,4.77 µM
same,TGI,LOX IMVI melanoma,19 µM
same,GI50,M14 melanoma,7.2 µM
same,TGI,M14 melanoma,21.3 µM
same,GI50,MALME-3M melanoma,8.04 µM
same,TGI,MALME-3M melanoma,22.4 µM
same,GI50,MCF7 breast,7.3 µM
same,TGI,MCF7 breast,27 µM
same,GI50,MDA-MB-231 breast,13.9 µM
same,TGI,MDA-MB-231 breast,43.3 µM
same,GI50,MDA-MB-435,10.3 µM
same,TGI,MDA-MB-435,23.9 µM
same,GI50,MOLT-4 leukemia,3.14 µM
same,TGI,MOLT-4 leukemia,15.7 µM
same,GI50,NCI-H226 lung,4.28 µM
same,TGI,NCI-H226 lung,19.8 µM
same,GI50,NCI-H23 lung,10.8 µM
same,TGI,NCI-H23 lung,33 µM
same,GI50,NCI-H460 lung,7.68 µM
same,TGI,NCI-H460 lung,25.7 µM
same,GI50,NCI-H522 lung,3.81 µM
same,TGI,NCI-H522 lung,22.1 µM
same,GI50,NCI/ADR-RES ovarian,3.22 µM
same,TGI,NCI/ADR-RES ovarian,12.7 µM
same,GI50,OVCAR-3 ovarian,4.34 µM
same,TGI,OVCAR-3 ovarian,16 µM
same,GI50,OVCAR-4 ovarian,3.66 µM
same,TGI,OVCAR-4 ovarian,12.7 µM
same,GI50,OVCAR-5 ovarian,16.6 µM
same,TGI,OVCAR-5 ovarian,42.3 µM
same,GI50,OVCAR-8 ovarian,3.77 µM
same,TGI,OVCAR-8 ovarian,17.2 µM
same,GI50,PC-3 prostate,3.28 µM
same,TGI,PC-3 prostate,15.9 µM
same,GI50,RXF 393 renal,13.2 µM
same,TGI,RXF 393 renal,35.3 µM
same,GI50,SF-268 CNS,6.5 µM
same,TGI,SF-268 CNS,26.3 µM
same,GI50,SF-295 CNS,10.8 µM
same,TGI,SF-295 CNS,23.1 µM
same,GI50,SF-539 CNS,12.3 µM
same,TGI,SF-539 CNS,28.5 µM
same,GI50,SK-MEL-2 melanoma,5.49 µM
same,TGI,SK-MEL-2 melanoma,21.9 µM
same,GI50,SK-MEL-28 melanoma,11.8 µM
same,TGI,SK-MEL-28 melanoma,26.7 µM
same,GI50,SK-MEL-5 melanoma,3.48 µM
same,TGI,SK-MEL-5 melanoma,12.7 µM
same,GI50,SK-OV-3 ovarian,15.5 µM
same,TGI,SK-OV-3 ovarian,32.3 µM
same,GI50,SN12C renal,4.77 µM
same,TGI,SN12C renal,22.7 µM
same,GI50,SNB-19 CNS,14.3 µM
same,TGI,SNB-19 CNS,42.9 µM
same,GI50,SR leukemia,7.92 µM
same,TGI,SR leukemia,42 µM
same,GI50,SW-620 colon,9.94 µM
same,TGI,SW-620 colon,27.2 µM
same,GI50,T-47D breast,2.27 µM
same,TGI,T-47D breast,7.14 µM
same,GI50,TK-10 renal,12.5 µM
same,TGI,TK-10 renal,26.4 µM
same,GI50,U251 CNS,8.82 µM
same,TGI,U251 CNS,27.9 µM
same,GI50,UACC-257 melanoma,12.4 µM
same,TGI,UACC-257 melanoma,26.2 µM
same,GI50,UACC-62 melanoma,3.52 µM
same,TGI,UACC-62 melanoma,14.5 µM
same,GI50,UO-31 renal,2.99 µM
same,TGI,UO-31 renal,13.1 µM
